Assay results published in ChEMBL document CHEMBL5506000, “Design, synthesis and antibacterial evaluation of low toxicity amphiphilic-cephalosporin derivatives” (Eur J Med Chem, 2024).
≈ marks a conversion by molar mass, not a printed value. Calls of active or inactive are those of the source. The calls are words filed in the database; no cut-off is given here.

Experiments:
[1] = system: Enterococcus faecalis; assay: Antibacterial activity against Enterococcus faecalis ATCC 29212 by CLSI protocol based assay; type: functional
[2] = system: Staphylococcus aureus; assay: Antibacterial activity against Staphylococcus aureus ATCC 29213 by CLSI protocol based assay; type: functional
[3] = system: Stenotrophomonas maltophilia; assay: Antibacterial activity against Stenotrophomonas maltophilia ATCC 17808 by CLSI protocol based assay; type: functional
[4] = system: Escherichia coli; assay: Antibacterial activity against Escherichia coli ATCC 25922 by CLSI protocol based assay; type: functional
[5] = Hemolytic activity in sheep RBC; type: toxicity, cell-based, Ovis aries, Erythrocyte; conditions: sheep red blood cells (erythrocytes)
[6] = system: Staphylococcus aureus; assay: Antibacterial activity against early exponential growth phase Staphylococcus aureus assessed as reduction in bacterial colony at 8 times of MIC measured at 8 to 24 hrs by time-kill kinetics assay; type: functional, organism-based; conditions: time 8-24 hrs
[7] = system: Staphylococcus aureus; assay: Post-antibiotic effect against Staphylococcus aureus at 1 times of MIC incubated for 1 hrs; type: functional
[8] = system: Staphylococcus aureus; assay: Post-antibiotic effect against Staphylococcus aureus at 4 times of MIC incubated for 1 hrs; type: functional
[9] = system: Staphylococcus aureus; assay: Antibacterial activity against Staphylococcus aureus measured after 3 to 6 hrs in presence of 50% plasma; type: functional, organism-based; conditions: time 3-6 hrs
[10] = system: Cell membrane; assay: Induction of cell membrane depolarization in Staphylococcus aureus assessed as increase in fluorescence intensity at 16 microg/ml by DiSC3(5) dye based assay; type: cell membranes; conditions: dose 16.0 µg/ml
[11] = Hemolytic activity in sheep RBC assessed as hemolysis rate at 1280 microg/ml relative to control; type: toxicity, cell-based, Ovis aries, Erythrocyte; conditions: sheep red blood cells (erythrocytes), dose 1280 µg/ml, read-out: Activity
[12] = system: Staphylococcus aureus; assay: Antibacterial activity against methicillin resistant Staphylococcus aureus; type: functional
[13] = system: Staphylococcus aureus; assay: Antibacterial activity against methicillin resistant Staphylococcus aureus clinical isolates assessed as 50% inhibition of bacterial growth; type: functional
[14] = system: Cell membrane; assay: Induction of inner membrane permeabilization in Staphylococcus aureus assessed as increase in fluorescence intensity at 16 microg/ml by PI staining based analysis; type: cell membranes; conditions: dose 16.0 µg/ml
[15] = system: Cell membrane; assay: Induction of cell membrane damage in Staphylococcus aureus assessed as increase in protein leakage; type: cell membranes
[16] = system: Staphylococcus aureus; assay: Antibacterial activity against Staphylococcus aureus assessed as reduction in metabolic activity at sub-MIC; type: functional, organism-based
[17] = system: Staphylococcus aureus; assay: Antibacterial activity against Staphylococcus aureus assessed as inhibition of metabolic activity at MIC; type: functional

Row | Molecule | MIC [1] [µg/mL] | MIC [2] [µg/mL] | MIC [3] [µg/mL] | MIC [4] [µg/mL] | HC50 [5] [µg/mL] | also measured
1 | CCCCCCNC(=O)c1ccc[n+](CC2=C(C(=O)[O-])N3C(=O)[C@@H](NC(=O)/C(=N\OC(C)(C)C(=O)O)c4csc(N)n4)[C@H]3SC2)c1.O=C(O)C(F)(F)F | 128 | 32 | 4 | 4 | > 1280 | –
2 | CCCCNC(=O)c1ccc[n+](CC2=C(C(=O)[O-])N3C(=O)[C@@H](NC(=O)/C(=N\OC)c4csc(N)n4)[C@H]3SC2)c1.O=C(O)C(F)(F)F | 4 | 2 | 0.5 | 0.5 | > 1280 | –
3 | CN[C@H](CC(C)C)C(=O)N[C@H]1C(=O)N[C@@H](CC(N)=O)C(=O)N[C@H]2C(=O)N[C@H]3C(=O)N[C@H](C(=O)N[C@H](C(=O)O)c4cc(O)cc(O)c4-c4cc3ccc4O)[C@H](O)c3ccc(c(Cl)c3)Oc3cc2cc(c3O[C@@H]2O[C@H](CO)[C@@H](O)[C@H](O)[C@H]2O[C@H]2C[C@](C)(N)[C@H](O)[C@H](C)O2)Oc2ccc(cc2Cl)[C@H]1O [VANCOMYCIN] | 2 (≈ 1.38 µM) | – | – | – | > 1280 | Activity [6]: Active; PAE [7]: 0.67 h; PAE [8]: 1.37 h; Activity [9]: Active; Activity [10]: inactive
4 | CCCCCCCCCCNC(=O)c1ccc[n+](CC2=C(C(=O)[O-])N3C(=O)[C@@H](NC(=O)/C(=N\OC)c4csc(N)n4)[C@H]3SC2)c1.O=C(O)C(F)(F)F | 4 | 0.5 | 8 | 8 | > 1280 | hemolysis at 1280 microg/ml [11]: 12.7%
5 | CCCCCCNC(=O)c1cc[n+](CC2=C(C(=O)[O-])N3C(=O)[C@@H](NC(=O)/C(=N\OC(C)(C)C(=O)O)c4csc(N)n4)[C@H]3SC2)cc1.O=C(O)C(F)(F)F | 64 | 32 | 8 | 32 | > 1280 | –
6 | CCCCCCCCCCNC(=O)c1ccc[n+](CC2=C(C(=O)[O-])N3C(=O)[C@@H](NC(=O)/C(=N\OC(C)(C)C(=O)O)c4csc(N)n4)[C@H]3SC2)c1.O=C(O)C(F)(F)F | 128 | 32 | 64 | 32 | > 1280 | –
7 | CCCCCCNC(=O)c1ccc[n+](CC2=C(C(=O)[O-])N3C(=O)[C@@H](NC(=O)/C(=N\OC)c4csc(N)n4)[C@H]3SC2)c1.O=C(O)C(F)(F)F | 4 | 2 | 2 | 4 | > 1280 | –
8 | CCCCCCCCNC(=O)c1ccc[n+](CC2=C(C(=O)[O-])N3C(=O)[C@@H](NC(=O)/C(=N\OC(C)(C)C(=O)O)c4csc(N)n4)[C@H]3SC2)c1.O=C(O)C(F)(F)F | 128 | 32 | 16 | 16 | > 1280 | –
9 | CCCCNC(=O)c1ccc[n+](CC2=C(C(=O)[O-])N3C(=O)[C@@H](NC(=O)/C(=N\OC(C)(C)C(=O)O)c4csc(N)n4)[C@H]3SC2)c1.O=C(O)C(F)(F)F | 128 | 32 | 0.5 | 1 | > 1280 | –
10 | CCCCCCCCNC(=O)c1cc[n+](CC2=C(C(=O)O)N3C(=O)[C@@H](NC(=O)/C(=N\OC)c4csc(N)n4)[C@H]3SC2)cc1.O=C([O-])C(F)(F)F | 2 | 1 | 4 | 8 | > 1280 | –
11 | CCCCNC(=O)c1cc[n+](CC2=C(C(=O)[O-])N3C(=O)[C@@H](NC(=O)/C(=N\OC(C)(C)C(=O)O)c4csc(N)n4)[C@H]3SC2)cc1.O=C(O)C(F)(F)F | 128 | 64 | 1 | 4 | > 1280 | –
12 | C[C@@H](O)[C@H]1C(=O)N2C(C(=O)O)=C(S[C@@H]3CN[C@H](C(=O)N(C)C)C3)[C@H](C)[C@H]12 [MEROPENEM] | – | – | 0.031 (≈ 0.0808 µM) | 0.031 (≈ 0.0808 µM) | > 1280 | –
13 | CCCCCCCCNC(=O)c1cc[n+](CC2=C(C(=O)[O-])N3C(=O)[C@@H](NC(=O)/C(=N\OC(C)(C)C(=O)O)c4csc(N)n4)[C@H]3SC2)cc1.O=C(O)C(F)(F)F | > 128 | 32 | 64 | 32 | > 1280 | –
14 | CCCCNC(=O)c1cc[n+](CC2=C(C(=O)[O-])N3C(=O)[C@@H](NC(=O)/C(=N\OC)c4csc(N)n4)[C@H]3SC2)cc1.O=C(O)C(F)(F)F | 4 | 4 | 1 | 1 | > 1280 | –
15 | CCCCCCCCCCNC(=O)c1cc[n+](CC2=C(C(=O)[O-])N3C(=O)[C@@H](NC(=O)/C(=N\OC(C)(C)C(=O)O)c4csc(N)n4)[C@H]3SC2)cc1.O=C(O)C(F)(F)F | > 128 | 32 | 128 | 64 | > 1280 | –
16 | CCCCCCN(Cc1ccc(-c2ccc(CN(CCCCCC)C(=O)[C@@H](N)CCCCN)cc2)cc1)C(=O)[C@@H](N)CCCCN.O=C(O)C(F)(F)F.O=C(O)C(F)(F)F.O=C(O)C(F)(F)F.O=C(O)C(F)(F)F | – | – | – | – | – | MIC [12]: 3.1 µg/mL
17 | CC(C)(O/N=C(\C(=O)N[C@@H]1C(=O)N2C(C(=O)[O-])=C(C[n+]3ccccc3)CS[C@H]12)c1csc(N)n1)C(=O)O [CEFTAZIDIME] | 128 (≈ 234 µM) | 16 (≈ 29.3 µM) | 0.063 (≈ 0.115 µM) | 0.063 (≈ 0.115 µM) | > 1280 | –
18 | CC[C@H]1OC(=O)[C@H](C)[C@@H](O[C@H]2C[C@@](C)(OC)[C@@H](O)[C@H](C)O2)[C@H](C)[C@@H](O[C@@H]2O[C@H](C)C[C@H](N(C)C)[C@H]2O)[C@](C)(O)C[C@@H](C)C(=O)[C@H](C)[C@@H](O)[C@]1(C)O [ERYTHROMYCIN] | – | – | – | – | – | MIC50 [13]: > 128 µg/mL
19 | CC[C@H](C)[C@H](NC(=O)CN)C(=O)NCC(=O)N[C@@H](C)C(=O)N[C@H](C(=O)N[C@@H](CC(C)C)C(=O)N[C@@H](CCCCN)C(=O)N[C@H](C(=O)N[C@@H](CC(C)C)C(=O)N[C@H](C(=O)N[C@H](C(=O)NCC(=O)N[C@@H](CC(C)C)C(=O)N1CCC[C@H]1C(=O)N[C@@H](C)C(=O)N[C@@H](CC(C)C)C(=O)N[C@H](C(=O)N[C@@H](CO)C(=O)N[C@@H](Cc1c[nH]c2ccccc12)C(=O)N[C@H](C(=O)N[C@@H](CCCCN)C(=O)N[C@@H](CCCNC(=N)N)C(=O)N[C@@H](CCCCN)C(=O)N[C@@H](CCCNC(=N)N)C(=O)N[C@@H](CCC(N)=O)C(=O)N[C@@H](CCC(N)=O)C(N)=O)[C@@H](C)CC)[C@@H](C)CC)[C@@H](C)O)[C@@H](C)O)C(C)C)C(C)C [MELITTIN] | 2 (≈ 0.703 µM) | – | 8 (≈ 2.81 µM) | – | – | Activity [10]: Active; Activity [14]: Active; Activity [15]: Active; Activity [16]: Active; inhibition (INH) [17]: ~100%
20 | CCCCCCNC(=O)c1cc[n+](CC2=C(C(=O)[O-])N3C(=O)[C@@H](NC(=O)/C(=N\OC)c4csc(N)n4)[C@H]3SC2)cc1.O=C(O)C(F)(F)F | 4 | 2 | 2 | 2 | > 1280 | –
21 | GENTAMICIN | – | – | – | – | – | Activity [10]: inactive; Activity [14]: inactive
22 | CCCCCCCCCCNC(=O)c1cc[n+](CC2=C(C(=O)[O-])N3C(=O)[C@@H](NC(=O)/C(=N\OC)c4csc(N)n4)[C@H]3SC2)cc1.O=C(O)C(F)(F)F | 4 | 1 | 8 | 8 | > 1280 | –
23 | CO/N=C(\C(=O)N[C@@H]1C(=O)N2C(C(=O)[O-])=C(COC(C)=O)CS[C@H]12)c1csc(N)n1.[Na+] [CEFOTAXIME SODIUM] | 16 | 1 | 2 | 2 | > 1280 | Activity [16]: Active; inhibition (INH) [17]: ~100%
